Data published in ChEMBL document CHEMBL5154823, “Amphiphilic cyclic peptide [W4KR5]-Antibiotics combinations as broad-spectrum antimicrobial agents” (Eur J Med Chem, 2022).
Activity calls are given as the source filed them. No cut-off for these calls is given here. Where a SMILES comes first, the peptide text is derived from it.

Columns and labels:
[1] = system: Pseudomonas aeruginosa; test: Synergistic antibacterial activity against Pseudomonas aeruginosa ATCC 27883 assessed as fractional inhibitory concentration index incubated for 24 hrs in presence of levofloxacin by checkerboard assay; format: functional
[2] = system: Pseudomonas aeruginosa; test: Antibacterial activity against Pseudomonas aeruginosa ATCC 27883 assessed as tobramycin MIC incubated for 24 hrs by microbroth dilution assay; format: functional
[3] = system: Escherichia coli; test: Synergistic antibacterial activity against Escherichia coli ATCC 25922 assessed as fractional inhibitory concentration index incubated for 24 hrs in presence of polymyxin B by checkerboard assay; format: functional
[4] = system: Klebsiella pneumoniae; test: Synergistic antibacterial activity against Klebsiella pneumoniae ATCC BAA 1705 assessed as fractional inhibitory concentration index incubated for 24 hrs in presence of daptomycin by checkerboard assay; format: functional
[5] = system: Pseudomonas aeruginosa; test: Synergistic antibacterial activity against carbapenem resistant Pseudomonas aeruginosa ATCC BAA 1744 assessed as fractional inhibitory concentration index incubated for 24 hrs in presence of meropenem by checkerboard assay; format: functional
[6] = system: Pseudomonas aeruginosa; test: Synergistic antibacterial activity against Pseudomonas aeruginosa ATCC 27883 assessed as fractional inhibitory concentration index incubated for 24 hrs in presence of meropenem by checkerboard assay; format: functional
[7] = system: Pseudomonas aeruginosa; test: Antibacterial activity against Pseudomonas aeruginosa ATCC 27883 assessed as vancomycin MIC incubated for 24 hrs by microbroth dilution assay; format: functional
[8] = system: Klebsiella pneumoniae; test: Antibacterial activity against Klebsiella pneumoniae ATCC BAA 1705 assessed as tetracycline MIC incubated for 24 hrs by microbroth dilution assay; format: functional
[9] = system: Staphylococcus aureus; test: Antibacterial activity against Methicillin resistant Staphylococcus aureus ATCC BAA -1556 assessed as reduction in microbial growth incubated for 24 hrs by microbroth dilution method; format: functional
[10] = system: Pseudomonas aeruginosa; test: Antibacterial activity against Pseudomonas aeruginosa ATCC 27883 assessed as polymyxin B MIC incubated for 24 hrs by microbroth dilution assay; format: functional
[11] = system: Escherichia coli; test: Antibacterial activity against Escherichia coli ATCC 25922 assessed as ciprofloxacin MIC incubated for 24 hrs by microbroth dilution assay; format: functional
[12] = system: Staphylococcus aureus; test: Synergistic antibacterial activity against methicillin resistant Staphylococcus aureus ATCC BAA -1556 assessed as fractional inhibitory concentration index incubated for 24 hrs in presence of meropenem by checkerboard assay; format: functional
[13] = system: Pseudomonas aeruginosa; test: Antibacterial activity against carbapenem resistant Pseudomonas aeruginosa ATCC BAA 1744 assessed as reduction in microbial growth incubated for 24 hrs by microbroth dilution method; format: functional
[14] = system: Escherichia coli; test: Synergistic antibacterial activity against Escherichia coli ATCC 25922 assessed as fractional inhibitory concentration index incubated for 24 hrs in presence of ciprofloxacin by checkerboard assay; format: functional
[15] = system: Klebsiella pneumoniae; test: Bactericidal activity against Klebsiella pneumoniae ATCC BAA 1705 assessed as decrease in bacterial growth at MIC measured after 18 hrs by Time kill assay; format: functional, organism-based
[16] = system: Klebsiella pneumoniae; test: Antibacterial activity against Klebsiella pneumoniae ATCC BAA 1705 assessed as levofloxacin MIC incubated for 24 hrs by microbroth dilution assay; format: functional
[17] = system: Staphylococcus aureus; test: Synergistic antibacterial activity against methicillin resistant Staphylococcus aureus ATCC BAA -1556 assessed as fractional inhibitory concentration index incubated for 24 hrs in presence of tetracycline by checkerboard assay; format: functional
[18] = system: Staphylococcus aureus; test: Antibacterial activity against Staphylococcus aureus ATCC BAA -1556 assessed as levofloxacin MIC incubated for 24 hrs by microbroth dilution assay; format: functional
[19] = system: Escherichia coli; test: Antibacterial activity against Escherichia coli ATCC 25922 assessed as reduction in microbial growth incubated for 24 hrs by microbroth dilution method; format: functional
[20] = system: Cell membrane; test: Induction of membrane disruption in Staphylococcus aureus ATCC BAA -1556 assessed as increase in PI positive cells at MIC incubated for 2 hrs by Propidium iodide staining based FACS cytometry analysis relative to control
[21] = system: Escherichia coli; test: Synergistic antibacterial activity against Escherichia coli ATCC 25922 assessed as fractional inhibitory concentration index incubated for 24 hrs in presence of kanamycin by checkerboard assay; format: functional
[22] = system: Cell membrane; test: Induction of membrane disruption in Staphylococcus aureus ATCC BAA -1556 assessed as increase in PI positive cells at 4 times of MIC incubated for 2 hrs by Propidium iodide staining based FACS cytometry analysis relative to control; format: subcellular
[23] = system: Escherichia coli; test: Antibacterial activity against carbapenem and NDM-1 positive resistant Escherichia coli ATCC BAA 2452 assessed as reduction in microbial growth incubated for 24 hrs by microbroth dilution method; format: functional
[24] = system: Klebsiella pneumoniae; test: Synergistic antibacterial activity against Klebsiella pneumoniae ATCC BAA 1705 assessed as fractional inhibitory concentration index incubated for 24 hrs in presence of tetracycline by checkerboard assay; format: functional
[25] = system: Klebsiella pneumoniae; test: Synergistic antibacterial activity against Klebsiella pneumoniae ATCC BAA 1705 assessed as fractional inhibitory concentration index incubated for 24 hrs in presence of kanamycin by checkerboard assay; format: functional
[26] = system: Escherichia coli; test: Antibacterial activity against Escherichia coli ATCC 25922 assessed as kanamycin MIC incubated for 24 hrs by microbroth dilution assay; format: functional
[27] = system: Staphylococcus aureus; test: Synergistic antibacterial activity against methicillin resistant Staphylococcus aureus ATCC BAA -1556 assessed as fractional inhibitory concentration index incubated for 24 hrs in presence of clindamycin by checkerboard assay; format: functional
[28] = system: Escherichia coli; test: Synergistic antibacterial activity against Escherichia coli ATCC 25922 assessed as fractional inhibitory concentration index incubated for 24 hrs in presence of levofloxacin by checkerboard assay; format: functional
[29] = system: Escherichia coli; test: Bactericidal activity against Escherichia coli ATCC BAA 2452 assessed as reduction in colony formation at MIC measured after 12 hrs by Time kill assay; format: functional, organism-based
[30] = system: Klebsiella pneumoniae; test: Antibacterial activity against Klebsiella pneumoniae ATCC BAA 1705 assessed as clindamycin MIC incubated for 24 hrs by microbroth dilution assay; format: functional
[31] = system: Klebsiella pneumoniae; test: Bactericidal activity against Klebsiella pneumoniae ATCC BAA 1705 assessed as reduction in colony formation at MIC measured after 24 hrs by Time kill assay; format: functional, organism-based
[32] = system: HEK293; test: Cytotoxicity against HEK293 cells assessed as effect on cell viability at 10 ug/ml incubated for 24 hrs by microplate reader analysis; format: toxicity, cell-based; conditions: human, hek293, 24 h, dose 10 µg/ml
[33] = system: Klebsiella pneumoniae; test: Synergistic antibacterial activity against Klebsiella pneumoniae ATCC BAA 1705 assessed as fractional inhibitory concentration index incubated for 24 hrs in presence of ciprofloxacin by checkerboard assay; format: functional
[34] = system: Staphylococcus aureus; test: Bactericidal activity against methicillin resistant Staphylococcus aureus ATCC BAA 1556 assessed as reduction in bacterial viability at MIC measured after 4 hrs by Time kill assay; format: functional, organism-based
[35] = system: Escherichia coli; test: Synergistic antibacterial activity against carbapenem and NDM-1 positive resistant Escherichia coli ATCC BAA 2452 assessed as fractional inhibitory concentration index incubated for 24 hrs in presence of meropenem by checkerboard assay; format: functional
[36] = system: Klebsiella pneumoniae; test: Antibacterial activity against Klebsiella pneumoniae ATCC BAA 1705 assessed as ciprofloxacin MIC incubated for 24 hrs by microbroth dilution assay; format: functional
[37] = system: Klebsiella pneumoniae; test: Synergistic antibacterial activity against Klebsiella pneumoniae ATCC BAA 1705 assessed as fractional inhibitory concentration index incubated for 24 hrs in presence of polymyxin B by checkerboard assay; format: functional
[38] = system: Pseudomonas aeruginosa; test: Antibacterial activity against Pseudomonas aeruginosa ATCC 27883 assessed as tetracycline MIC incubated for 24 hrs by microbroth dilution assay; format: functional
[39] = system: Escherichia coli; test: Antibacterial activity against Escherichia coli ATCC 25922 assessed as levofloxacin MIC incubated for 24 hrs by microbroth dilution assay; format: functional

N=C(N)NCCC[C@@H]1NC(=O)[C@H](CCCNC(=N)N)NC(=O)[C@H](CCCNC(=N)N)NC(=O)[C@H](CCCNC(=N)N)NC(=O)[C@H](Cc2c[nH]c3ccccc23)NC(=O)[C@H](Cc2c[nH]c3ccccc23)NC(=O)[C@H](Cc2c[nH]c3ccccc23)NC(=O)[C@H](Cc2c[nH]c3ccccc23)NC(=O)[C@H](CCCCN)NC(=O)[C@H](CCCNC(=N)N)NC1=O (cyclo(KWWWWRRRRR))
fractional inhibitory concentration index (FICI) [1]: 0.375
MIC [2]: 0.125 µg/mL
fractional inhibitory concentration index (FICI) [3]: 0.3125
fractional inhibitory concentration index (FICI) [4]: 0.313
fractional inhibitory concentration index (FICI) [5]: 0.156
fractional inhibitory concentration index (FICI) [6]: 0.375
MIC [7]: 8 µg/mL
MIC [8]: 1 µg/mL
MIC [9]: 4 µg/mL
MIC [10]: 0.125 µg/mL
MIC [11]: 8 µg/mL
fractional inhibitory concentration index (FICI) [12]: 1
MIC [13]: 16 µg/mL
fractional inhibitory concentration index (FICI) [14]: 0.625
Activity [15]: Active
MIC [16]: 8 µg/mL
fractional inhibitory concentration index (FICI) [17]: 0.5
MIC [18]: 1 µg/mL
MIC [19]: 16 µg/mL
Activity [20]: 48.2%
fractional inhibitory concentration index (FICI) [21]: 0.375
Activity [22]: 81.3%
MIC [23]: 16 µg/mL
fractional inhibitory concentration index (FICI) [24]: 0.3125
fractional inhibitory concentration index (FICI) [25]: 0.375
MIC [26]: 4 µg/mL
fractional inhibitory concentration index (FICI) [27]: 0.498
fractional inhibitory concentration index (FICI) [28]: 0.375
Activity [29]: Active
MIC [30]: 2 µg/mL
Activity [31]: Active
Activity [32]: Non-Toxic
fractional inhibitory concentration index (FICI) [33]: 0.562
Activity [34]: Active
fractional inhibitory concentration index (FICI) [35]: 0.5
MIC [36]: 16 µg/mL
fractional inhibitory concentration index (FICI) [37]: 0.313
MIC [38]: 4 µg/mL
MIC [39]: 8 µg/mL
